Columns and labels:
[1] = test system: post-operative pain (skin incision of the hind paw); test: Incision model of postoperative pain (mechanical allodynia, von Frey); assay type: in vivo, rat
Method: Paw incision was performed under isoflurane (2-3%) anesthesia and followed procedures previously described (Brennan et al., 1996). Briefly, the plantar aspect of the left hindpaw was placed through a hole in a sterile plastic drape. A 1-cm longitudinal incision was made through the skin and fascia, starting 0.5 cm from the proximal edge of the heel and extending towards the toes, the plantar muscle was elevated and injured longitudinally leaving the muscle origin and insertion points intact. After hemostasis with gentle pressure, the skin was apposed with 2 mattress sutures of 5-0 nylon. Mechanical allodynia was measured using calibrated von Frey filaments (Stoelting, Wood Dale, Ill.) as previously described (Chaplan et al., 1994) in all animals 2 h following surgery. Rats were placed into inverted individual plastic containers (20×12.5×20 cm) on top of a suspended wire mesh grid, and acclimated to the test chambers for 20 min. The von Frey filaments were presented perpendicularly to the plantar surface pointing towards the medial side of the incision (Brennan et al., 1996), and then held in this position for approximately 8 s with enough force to cause a slight bend in the filament. Positive responses included an abrupt withdrawal of the hind paw from the stimulus, or flinching behavior immediately following removal of the stimulus. A 50% paw withdrawal threshold (PWT) was determined using an up-down procedure (Dixon, 1980). Mechanical allodynia was assessed 30 min following i.p. compound administration.

[2] = molecular target: T1, human α3β4 nicotinic acetylcholine receptor subtype expressed in HEK-293 cells (Homo sapiens, UniProt P30926+P32297); test: Calcium flux assay (FLIPR) in HEK-293 cells expressing human α3β4; assay type: cell-based; conditions: agonists Compound A and Compound B
T1 construct: expressed in transfected cells
Method: Calcium Flux Assays Using Cells Expressing nAChR Subtypes
Human embryonic kidney (HEK) 293 cells stably expressing human α4β2 or α3β4 combinations are grown to confluency in 162 cm^2 tissue culture flasks in DMEM media supplemented with 10% FBS and 25 μg/ml zeocin and 200 μg/ml hygromycin B. IMR-32 neuroblastoma cells (ATCC) are grown to confluency in 162 cm^2 tissue culture flasks in minimum essential media supplemented with 10% FBS and 1 mM sodium pyruvate, 1% non-essential amino acids and 1% antibiotic-antimycotic. […] Calcium flux was measured using calcium-3 assay kit (Molecular Devices, Sunnyvale, Calif.) or fluo-4 (Invitrogen). […] The cells were loaded with 100 μl of the dye per well and incubated at room temperature for up to one hour for HEK 293 clonal stable cell lines or 30 minutes-45 minutes at 37° C. for IMR-32 cells Fluorescence measurements were read simultaneously from all the wells by a Fluorometic Imaging Plate Reader (FLIPR) at an excitation wavelength of 480 nm and an emission wavelength of 520 nm. Baseline fluorescence was measured for the first 6 seconds at which 3× concentrations of modulator/test compounds were added to the cell plate at 50 μl and incubated for five minutes. The fluorescence intensity was captured every second for the first 1 minute followed by every 5 seconds for an additional 4 minutes. […]

emesis in ferrets = test: Emesis in ferrets; assay type: in vivo, ferret
Method: Fasted male ferrets (Marshall BioResources, North Rose, N.Y.) weighing between 1.0 and 1.7 kg are used to determine the emetic effects. α4β2 PAM (Compound 1) was administered first and thirty minutes later, Compound A was administered at various doses. […] The percentage of animals that experienced emesis at a given dose was recorded.

T1 sequence (P32297 32-505): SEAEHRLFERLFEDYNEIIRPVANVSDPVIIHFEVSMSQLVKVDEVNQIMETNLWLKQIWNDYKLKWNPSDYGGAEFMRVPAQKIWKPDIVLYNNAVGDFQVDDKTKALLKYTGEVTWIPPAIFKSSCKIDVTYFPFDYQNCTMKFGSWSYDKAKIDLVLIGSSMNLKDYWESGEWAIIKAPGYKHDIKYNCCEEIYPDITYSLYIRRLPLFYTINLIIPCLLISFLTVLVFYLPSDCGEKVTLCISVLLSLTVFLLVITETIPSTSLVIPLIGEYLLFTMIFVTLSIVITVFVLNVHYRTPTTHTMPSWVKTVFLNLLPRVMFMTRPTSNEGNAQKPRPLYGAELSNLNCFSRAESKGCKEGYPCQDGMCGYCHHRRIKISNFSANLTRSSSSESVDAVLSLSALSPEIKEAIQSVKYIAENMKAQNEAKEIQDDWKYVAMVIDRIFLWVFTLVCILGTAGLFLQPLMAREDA
T1 sequence (P30926 22-498): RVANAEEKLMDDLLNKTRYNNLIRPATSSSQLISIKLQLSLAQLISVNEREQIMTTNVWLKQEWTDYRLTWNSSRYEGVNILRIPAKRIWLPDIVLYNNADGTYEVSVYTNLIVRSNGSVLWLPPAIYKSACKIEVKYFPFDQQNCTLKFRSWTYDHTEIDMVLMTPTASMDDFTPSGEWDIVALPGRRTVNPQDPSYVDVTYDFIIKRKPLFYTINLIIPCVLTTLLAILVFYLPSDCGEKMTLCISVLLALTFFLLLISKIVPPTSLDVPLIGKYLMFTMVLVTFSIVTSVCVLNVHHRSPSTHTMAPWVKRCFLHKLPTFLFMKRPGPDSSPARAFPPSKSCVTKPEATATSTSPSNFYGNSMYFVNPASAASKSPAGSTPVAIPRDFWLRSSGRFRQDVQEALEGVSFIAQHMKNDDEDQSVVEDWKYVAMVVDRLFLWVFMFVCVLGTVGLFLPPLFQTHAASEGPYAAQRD

Clc1ccc(OC[C@H]2CCN2)cn1 [Compound A, 5-[(2R)-azetidin-2-ylmethoxy]-2-chloropyridine]
percent reversal of mechanical allodynia ([1]; Compound A 10 nmol/kg combined with Compound 1 (3.5 μmol/kg)): 22±14%
PWT ([1]; Compound A 10 nmol/kg in the presence of Compound 1 (3.5 μmol/kg)): 5.0 ± 1.9 g
percent reversal of mechanical allodynia ([1]; Compound A 30 nmol/kg combined with Compound 1 (3.5 μmol/kg)): 54±16%
PWT ([1]; Compound A 30 nmol/kg in the presence of Compound 1 (3.5 μmol/kg)): 9.2 ± 2.1 g
percent reversal of mechanical allodynia ([1]; Compound A 100 nmol/kg combined with Compound 1 (3.5 μmol/kg)): 85±10%
PWT ([1]; Compound A 100 nmol/kg in the presence of Compound 1 (3.5 μmol/kg)): 13.1 ± 1.2 g
PWT ([1]; Compound A alone, 100 nmol/kg): 6.0 ± 1.0 g
percent reversal of mechanical allodynia ([1]; Compound A alone, 100 nmol/kg): 25±8%
PWT ([1]; Compound A alone, 300 nmol/kg): 12.0 ± 1.6 g
percent reversal of mechanical allodynia ([1]; Compound A alone, 300 nmol/kg): 75±12%
ED50 ([1]; Rattus norvegicus, Compound A alone, read-out: ED50 (reversal of mechanical allodynia)): 0.165 µmol/kg
leftward shift in the DRC of Compound A ([1]; co-administration of Compound 1): 6 fold

N#Cc1cccc(-c2nc(-c3cccnc3)no2)c1 [Example 1, 3-(3-(pyridin-3-yl)-1,2,4-oxadiazol-5-yl)benzonitrile]
effect of the PAM on the concentration responses to the agonists [2]: unable to affect the concentration responses to the agonists
effect on the dose response curve of Compound A for emesis (emesis in ferrets; Compound 1 3.5 μmol/kg with various doses of Compound A): does not shift the dose response curve of Compound A
emesis (emesis in ferrets; alone): does not cause emesis
alteration of PWT of the injured paw ([1]; Compound 1 alone, up to 35 μmol/kg, i.p.): produced no alteration of PWT

From patent US9040568B2, “Pharmaceutical compositions for the treatment of pain” (AbbVie Inc., priority 2009, dated 2015)
